Columns and labels:
St. Aereus = experiment: Anti-microbial screening, agar dilution, St. Aereus; assay type: cell-based, Staphylococcus aureus; details: after 10, 20, 40 and 60 minutes at all dilutions 1:100, 1:200, 1:400, 1:800
Description: (§1) The antibacterial properties of the present compound were studied by the method of agar dilution. Test solutions of the compound were prepared in a concentration of 1% using dimethylformamide as a solvent then they are diluted in physiological solution to obtain the final experimental dilutions 1:100, 1:200, 1:400, and 1:800. The effect of these substances were compared with furacillin in a controllable study. The testing microbes used were gram positive bacteria St. Aereus, gram negative bacteria E. Coli, Ps. aeruginosa and Candida albicans fungi were taken. The experiments used for this survey were meat-pentonlu agar (EPA) for cultivation of bacteria and Saburo environment for fungi. Each experiment used 1 ml of test solution on each plate 500 min. Add 2 drops of emulsified with microbes feel. All experimental samples were taken from the agar after 10, 20, 40, and 60 minutes in the environment on the basis of Patrk planted. Bacteria were cultivated at a temperature of 37° C. for 1 day and the mushroom was kept in a thermostat for […] at a temperature of 28° C. Then results were checked.

E. Coli = experiment: Anti-microbial screening, agar dilution, E. Coli; assay type: cell-based, Escherichia coli; details: after 10, 20, 40 and 60 minutes at all dilutions 1:100, 1:200, 1:400, 1:800
Description: as §1

Ps. aeruginosa = experiment: Anti-microbial screening, agar dilution, Ps. aeruginosa; assay type: cell-based, Pseudomonas aeruginosa; details: after 10, 20, 40 and 60 minutes at all dilutions 1:100, 1:200, 1:400, 1:800
Description: as §1

Candida albicans = experiment: Anti-microbial screening, agar dilution, Candida albicans; assay type: cell-based; details: after 10, 20, 40 and 60 minutes at all dilutions 1:100, 1:200, 1:400, 1:800
Description: as §1

melting point: 117 to 118 °C
SMILES: CC(O)Cn1c(-c2ccncc2O)nc(-c2ccccc2)c1-c1ccccc1 (centres unmarked) [4-(1-(2-Hydroxypropyl)-4,5-diphenyl-1H-imidazol-2-yl)pyridin-3-ol]
inhibition activity (in words) (St. Aereus): highest inhibition activity
inhibition activity (in words) (E. Coli): highest inhibition activity
inhibition activity (in words) (Ps. aeruginosa): highest inhibition activity
inhibition activity (in words) (Candida albicans): highest inhibition activity

Source: patent US11970475B1, “4-(1-(2-Hydroxypropyl)-4,5-diphenyl-1H-imidazol-2-yl)pyridin-3-ol as an antimicrobial compound” (KING FAISAL UNIVERSITY, priority 2023, dated 2024)
